Measured values published in patent US20140212493A1, “Highly Bioavailable Composition Containing Eprosartan - Poloxamer Complex or 2-(7-Chloro-5-Methyl-4-Oxo-3-Phenyl-4,5-Dihydro-3H-Pyridazine (4,5-b)Indol-1-yl)-N,N-Dimethylacetamide - Poloxamer Complex” (BVM Holding Co., priority 2003, published 2014).
Structures can show the parent of a compound that is named as a salt.

Legend:
[1] = Dissolution of EPM and EPM-poloxamer complexes, USP apparatus II, SGF; format: physicochemical; conditions: equivalent to 400 mg dose, SGF without pepsin, 37° C., 25 rpm
Protocol: (§1) The dissolution rate of the association complex may be carried out using a suitable solvent such as 0.1 N HCl purified water, or simulated gastric fluid, as dissolution medium. The testing is conducted under conditions intended to simulate ingestions at about 37° C. and from about 25 to about 75 rpm. The dissolution may be tested using any method known in the art such as USP apparatus I (a basket apparatus) or USP apparatus II (a paddle apparatus) (USP 27/NF 22, 2004, <711>, page 2303). Samples of the solution are taken at preselected intervals such as at every fifteen minutes up to one hour.
Lutrol F-68, 1.0 gm, and EPM, 1.0 gm, are mixed in a jacketed vessel (KG5) heated to 53° C. while mixing for about 2 hrs. The resulting complex, in the form of free flowing granules, thus formed is allowed cool to room temperature and sieved through a 40 mesh screen. The dissolution of the complex equivalent to the 400 mg dose is determined using USP apparatus II, 900 ml of SGF (simulated gastric fluid without pepsin) as the dissolution medium at 37° C. and 25 rpm.
The dissolution of the complex equivalent to a 400 mg dose is determined using USP apparatus II, in SGF as the dissolution medium at 37° C. and 25 rpm.

[2] = Dissolution of NZ and NZ-poloxamer complex, USP apparatus II, purified water; format: physicochemical; conditions: equivalent to 20mg drug, 1000 ml purified water, 37° C., 75 rpm
Protocol: as §1
Lutrol F-68 and NZ, 250 mg are mixed in a jacketed vessel (KG 5) and heated to 53° C. while mixing for about 2 hours. The resulting complex thus formed is allowed to cool to room temperature and sieved through a 40 mesh screen. The dissolution of the complex equivalent to 20mg drug is determined using USP apparatus II, 1000 ml of purified water as the dissolution medium at 37° C. and 75 rpm.

| % DISSOLVED ([1]; 15 minutes) | % DISSOLVED ([1]; 30 minutes) | % DISSOLVED ([1]; 45 minutes) | % DISSOLVED ([1]; 60 minutes) | % DISSOLVED ([2]; 15 minutes) | % DISSOLVED ([2]; 30 minutes) | % DISSOLVED ([2]; 45 minutes) | % DISSOLVED ([2]; 60 minutes) | SMILES |
| --- | --- | --- | --- | --- | --- | --- | --- | --- |
| 38.7% | 51.9% | 61.3% | 61.7% | – | – | – | – | CCCCc1ncc(/C=C(\Cc2cccs2)C(=O)O)n1Cc1ccc(C(=O)O)cc1 [EPM, eprosartan mesylate] |
| – | – | – | – | 0.65% | 1.90% | 2.53% | 3.14% | CN(C)C(=O)Cc1nn(-c2ccccc2)c(=O)c2c1c1ccc(Cl)cc1n2C [NZ, 2-(7-chloro-5-methyl-4-oxo-3-phenyl-4,5 dihydro-3H-pyridazino (4,5-b)-indol-1-yl)-N,N-dimethylacetamide] |
